Experimental findings from paper PMC10298512, “Synthesis and Anticancer Evaluation of Novel 7-Aza-Coumarine-3-Carboxamides” (International Journal of Molecular Sciences, 2023) are described below.

A value given as a limit tells only on which side of the number the result lay.

As a reminder, the IC50 is the concentration needed to halve the response being measured. One may read the melting point as the temperature, or range, at which the solid turns liquid.

One data set deals with M-HeLa. The data set is described as follows: MTT cytotoxicity test, M-HeLa cells. The format is cell-based, human. The settings on record: Homo sapiens, M-HeLa, 24 h incubation, tested at 1–100 µM, three independent experiments, read-out: IC50 (µM) Cancer Cell Lines M-HeLa. Background: Tetrazolium assays rely on reduction of a dye to a coloured formazan, in cell work by metabolically active cells.

The test system of a further data set is HuTu 80. The data set is described as follows: MTT cytotoxicity test, HuTu 80 cells. Format: cell-based, human. The settings on record: for IC50: Homo sapiens, HuTu80, MTT test, 24 h incubation, tested at 1–100 µM, three independent experiments, read-out: IC50 (µM) Cancer Cell Lines HuTu 80; for selectivity index, SI = IC50(Chang liver)/IC50(HuTu 80): normal Chang liver vs HuTu 80.

In a further data set the test system is Chang liver. The data set is described as follows: MTT cytotoxicity test, normal Chang liver cells. Format: cell-based, human. The settings on record: Homo sapiens, Chang liver, 24 h incubation, tested at 1–100 µM, three independent experiments, read-out: IC50 (µM) Normal Cell Lines Chang Liver.
Data set [1] deals with HuTu 80 cells. Kind of data set: Cell apoptosis analysis by flow cytometry (annexin V-Alexa Fluor 647 / propidium iodide). The format is cell-based, human. The settings on record: HuTu 80, IC50/2 and IC50 concentrations, 24-h incubation. From the text:
Induction of apoptosis is one of the most important mechanisms of anticancer activity. The apoptosis-inducing effect in HuTu 80 cells was studied by flow cytometry using sets of annexin V binding to the apoptosis marker phosphatidylserine. On the surface of the membranes of healthy cells, phosphatidylserine is contained in a minimal amount. Therefore, the interaction of annexin V with these cells is negligible. During apoptosis, phosphatidylserine molecules appear on the cell surface and can interact with the protein. This interaction leads to an increase in the fluorescence intensity of apoptotic cells, which is recorded by a flow cytometer. The apoptosis-inducing effect was evaluated using the example of the leader compound 7r at IC50/2 and IC50 concentrations on the HuTu 80 cell line (Figure 1).
(§1) Cell Culture. HuTu 80 cells at 1 × 10^6 cells/well in a final volume of 2 mL were seeded into six-well plates.
Cell Apoptosis Analysis. […] The cells were harvested at 2000 rpm for 5 min and then washed twice with ice-cold PBS, followed by resuspension in binding buffer. Next, the samples were incubated with 5 μL of annexin V- Alexa Fluor 647 (Sigma-Aldrich, St. Louis, MO, USA) and 5 μL of propidium iodide (Sigma-Aldrich, St. Louis, MO, USA) for 15 min at room temperature in the dark. Finally, the cells were analyzed using flow cytometry (Guava easy Cyte, MERCK, Darmstadt, Germany) within 1 h. […]

Data set [2] has as its system HuTu 80 cells. The data set is described as follows: Mitochondrial membrane potential by flow cytometry (JC-10). The settings on record: HuTu 80, IC50/2 and IC50 concentrations, 24-h incubation. The format is cell-based, human. An excerpt:
Violation of the functions of the mitochondria of the cell is one of the most common signs of apoptosis inherent in eukaryotic organisms. With mitochondrial dysfunction, pro-apoptotic factors are released into the cytoplasm—cytochrome c, AIF, Smac/DIABLO, endonuclease G, as well as proforms of caspases 2, 3, and 9—inducing the cascade. The release of these protein factors can be associated both with the rupture of mitochondrial membranes and with the activation of specific channels in the outer mitochondrial membrane. This usually leads to a change in the mitochondrial membrane potential (ΔΨm) due to a change in the permeability of the inner mitochondrial membrane for H+ protons. […] The principle of operation of these dyes is determined by their ability to spontaneously penetrate through the cytoplasmic membranes of cells, as well as the outer and inner membranes of mitochondria and accumulate in areas with a high concentration of protons, that is, under the inner mitochondrial membrane. This effect is accompanied by a change in the intensity of cell fluorescence, which is recorded by cytofluorimetry. […] JC-10 accumulates in the mitochondrial matrix and forms aggregates (J-aggregates) with red fluorescence in normal cells with a high mitochondrial membrane potential. […]
(In flow cytometry, cells or beads pass a laser one at a time.)

Data set [3] concerns HuTu 80 cells. Kind of data set: Detection of intracellular ROS by flow cytometry (CellROX Deep Red). The format is cell-based, human. The settings on record: for Fluorescence intensity (CellROX Deep Red, ROS production): 24 h.
Excerpt: Increased generation of reactive oxygen species (ROS) by the test compounds can also characterize the development of apoptosis along the mitochondrial pathway. Mitochondria are both a potential source and target of ROS. An increase in ROS production leads to the disruption of mitochondrial functions and, subsequently, to irreversible damage and cell death. In this regard, the effect of lead compound 7r at IC50/2 and IC50 concentrations on ROS production in HuTu 80 cells was investigated using a flow cytometry assay and the CellROX® Deep Red flow cytometry kit. […] This indicates an increase in ROS production in the presence of the test compound.
as §1
ROS generation was investigated using a flow cytometry assay and CellROX® Deep Red flow cytometry kit. For this, […] cells were harvested at 2000 rpm for 5 min and then washed twice with ice-cold PBS, followed by resuspension in 0.1 mL of medium without FBS, to which we added 0.2 μL of CellROX® Deep Red (Thermo Fisher Scientific, Waltham, MA, USA) and incubated at 37 °C for 30 min After three times washing the cells and suspending them in PBS, the production of ROS in the cells was immediately monitored using flow cytometer Guava easy Cyte, MERCK).

Consider `Cc1ncc(CCl)c2cc(C(=O)Nc3ccc(NC(=O)c4cc5c(CCl)cnc(C)c5oc4=O)cc3)c(=O)oc12` [7q, N,N′-(1,4-Phenylene)bis(5-(chloromethyl)-8-methyl-2-oxo-2H-pyrano[2,3-c]pyridine-3-carboxamide)], for which the melting point was > 300 °C. In addition, the IC50 with M-HeLa was 84.3 ± 5.9 µM. Further, the IC50 in the data set on HuTu 80 is 95.4 ± 6.5 µM. For the same compound, in the data set on Chang liver, the IC50 was > 100 µM.
Turning to `Cc1ncc(CCl)c2cc(C(=O)Nc3ccc(S(=O)(=O)c4ccc(NC(=O)c5cc6c(CCl)cnc(C)c6oc5=O)cc4)cc3)c(=O)oc12` [7r, N,N′-(Sulfonylbis(4,1-phenylene))bis(5-(chloromethyl)-8-methyl-2-oxo-2H-pyrano[2,3-c]pyridine-3-carboxamide)], the IC50 in the data set with M-HeLa was determined as 64.5 ± 4.5 µM; in the data set on HuTu 80, 5.5 ± 0.4 µM; with Chang liver, 78 ± 5.9 µM. In the data set on HuTu 80, the “selectivity index, SI = IC50(Chang liver)/IC50(HuTu 80)” value was 14. In the data set with HuTu 80 cells [1], the “apoptosis-inducing effect (in words)” value is “apoptotic effects were registered”. Besides, the “change in mitochondrial membrane potential (in words)” value with HuTu 80 cells [2] is “decrease in the mitochondrial membrane potential”. Moreover, the “Fluorescence intensity (CellROX Deep Red, ROS production)” value in the data set on HuTu 80 cells [3] (HuTu 80, 2.8 µM (IC50/2)) is 1400; in the data set with HuTu 80 cells [3] (HuTu 80, 5.5 µM (IC50)) it was 1700. Also, in the data set with HuTu 80 cells [3] (HuTu 80, IC50/2 and IC50 concentrations), the “ROS production vs control (in words)” value is recorded as “significant increase”.
With `Cc1ncc(CCl)c2cc(C(=O)Nc3cccc(S(=O)(=O)c4cccc(NC(=O)c5cc6c(CCl)cnc(C)c6oc5=O)c4)c3)c(=O)oc12` [7s, N,N′-(Sulfonylbis(3,1-phenylene))bis(5-(chloromethyl)-8-methyl-2-oxo-2H-pyrano[2,3-c]pyridine-3-carboxamide)], the melting point was > 300 °C. Further, the IC50 in the data set on M-HeLa is 80 ± 5.7 µM. For the same compound, in the data set with HuTu 80, the concentration for half-maximal inhibition (IC50) is 13.8 ± 1.1 µM and the “selectivity index, SI = IC50(Chang liver)/IC50(HuTu 80)” value turned out to be 9. In addition, the 50% inhibitory concentration (IC50) in the data set on Chang liver turned out to be 125 ± 11 µM.
